From patent US12037415B2, “Peptide and pharmaceutical composition for treating an eye disease comprising the same as an active pharmaceutical ingredient” (YuYu Pharma, Inc., priority 2017, dated 2024)
Non-standard residues stand in square brackets, D forms with d. Residues, ends and D or L forms follow the SMILES beside them. ξ: configuration not given here. Hyp = O=C(O)[C@@H]1C[C@@H](O)CN1; Ile(3ξ) = CCC(C)[C@H](N)C(=O)O

What was measured:
[1] = test system: rats with dry eye syndrome (extraorbital lacrimal gland excision, ELGE); assay: Amount of tear secretion (Schirmer test, cobalt chloride paper) in rats with ELGE-induced dry eye syndrome; format: in vivo, rat; settings: 0.3% solution (DS 3%), administration for 14 days
Excerpt: (§1) In order to evaluate the eye protection effect on dry eye syndrome by YDE-001 to YDE-028 prepared in Working Example 1, a total of 320 Sprague-Dawley-type male rats (OrientBio, Seungnam, Korea) were adapted for 7 days. Thereafter, dry eye syndrome was induced in 264 test rats through extraorbital lacrimal gland excision (hereinafter, ELGE). 8 test rats without the eye abnormality were subjected to a sham operation as a control group.
(§2) The rats were systemically anesthetized by inhaling a mixed gas of 2% to 3% of isoflurane (Hana Pharm. Co., Hwasung, Korea), 70% of N2O, and 28.6% of O2 using a rodent anesthesia machine (Surgivet, Waukesha, Wis., USA) and a ventilator (Model 687, Harvard Apparatus, Cambridge, UK). Thereafter, the extraorbital lacrimal gland located in the subdermal area above the masseter muscle and under the optic nerve was excised through a transverse incision in a size of 10 mm on the anterior part of the left ear tragus. The skin was sutured by a general method. […] After 6 days following the ELGE operation, confirmation was performed through the Schirmer test by measuring the amount of tear secretion whether dry eye syndrome had been induced. Meanwhile, each rat of the control group with the sham operation was checked for the presence and location of the extraorbital lacrimal gland through a skin incision, and the skin was then sutured without the excision thereof (FIG. 134).
(§3) In addition, in order to evaluate the eye protection effect on dry eye syndrome by YDE-029 to YDE-043 prepared in Working Example 1, a total of 200 Sprague-Dawley-type male rats (OrientBio, Seungnam, Korea) were adapted for 7 days. Dry eye syndrome was induced in 165 test rats through the ELGE. 8 test rats without the eye abnormality were subjected to the sham operation as a control group. The ELGE was carried out as described above.
(§4) For YDE-001 to YDE-028, YY-102 and the 28 YDE-series were each dissolved in physiological saline at a concentration of 3 mg/ml and administered at a dose of 5 μl/eye at 9:30 am and 3:30 pm daily for 14 days after 7 days from the ELGE operation for a total of 28 times. The DS solution was dissolved in physiological saline at a concentration of 30 mg/ml and administered at a dose of 5 μl/eye twice a day for 14 days after 7 days from the ELGE operation for a total of 28 times. For the sham control and the ELGE control groups, the same stimulation as the administration was applied. In order to prevent excessive eye dryness, the same volume of physiological saline was applied in the same manner in place of the test substances.
as §4, with “Further, For YDE-029” for “For YDE-001”, “Further, For YDE-029 to YDE-043,” for “For YDE-001 to YDE-028,”, “YDE-029 to YDE-043, YY-102 and” for “YDE-001 to YDE-028, YY-102 and”, “and the 15 YDE-series were” for “and the 28 YDE-series were”, “the test substances (FIG. 137).” for “the test substances.”
After 6 days from the ELGE surgery, the changes in the amount of tear secretion were measured at day 7 and day 14 after the administration of YDE-001 to YDE-043. The amount of tear secretion was measured by the […] travel distance of tears absorbed by cobalt chloride paper in a size of 1×15 mm (Toyo Roshi Kaisha, Japan).
The cobalt chloride paper was placed in the lateral canthus of a rat for 60 seconds to absorb tears (FIG. 139). The length of the area absorbed from the corner of the cobalt chloride paper was measured with an electronic digital caliper (Mytutoyo, Tokyo, Japan) (FIG. 138).

[2] = Stability in aqueous solution, amount of related substances under long-term storage conditions; format: physicochemical; settings: glass vial, 25° C., 75% RH
Description: In order to confirm the stability of each test substance in an aqueous solution, […] of each sample was dissolved in 1 ml of water to a concentration of 1 mg/ml, which was then charged to a glass vial, plugged with a rubber cap, sealed with an aluminum cap, and stored under long-term storage conditions (25° C., 75% RH). The stability of the test substance was evaluated by measuring the amount of related substances at the time of one week, two weeks, four weeks, eight weeks, and twelve weeks under the long-term storage conditions.

[3] = test system: cornea of rats with dry eye syndrome (ELGE); assay: Corneal permeability of fluorescent dye (corneal damage) in rats with ELGE-induced dry eye syndrome; format: in vivo, rat; settings: 0.3% solution, day 14 after the administration, study of YDE-001 to YDE-028 (Table 16)
Excerpt: as §1, §2, §3, §4
as §4, with “Further, For YDE-029” for “For YDE-001”, “Further, For YDE-029 to YDE-043,” for “For YDE-001 to YDE-028,”, “YDE-029 to YDE-043, YY-102 and” for “YDE-001 to YDE-028, YY-102 and”, “and the 15 YDE-series were” for “and the 28 YDE-series were”, “the test substances (FIG. 137).” for “the test substances.”
After YDE-001 to YDE-028 were each administered to the eyes […], the changes in the corneal permeability were checked.
In order to measure the corneal permeability, Zolethyl 50™ (Virbac Lab., Carros, France), an animal anesthetic, was intraperitoneally injected at a dose of 25 mg/kg. Thereafter, saline containing a 1% (v/v) fluorescent solution (fluorescein sodium salt, Tokyo Kasei Kogyo Co., Tokyo, Japan) was applied to the eyes at a dose of 5 μl/eye. The eyes thus treated were closed and fixed with a tape. After 1 hour, the remaining fluorescent solution was removed using a cotton swab (FIG. 142). […]

Row | Amount of related substances (%; after 12 weeks) [2] | SMILES | Amount of tear secretion as compared with the ELGE control group ([1]; study of YDE-001 to YDE-028) | Amount of tear secretion as compared with the ELGE control group ([1]; study of YDE-029 to YDE-043) | Permeability of fluorescent dye (%) [3]
1 |  | O=c1ccn([C@@H]2O[C@H](COP(=O)(O)OP(=O)(O)OP(=O)(O)OP(=O)(O)OC[C@H]3O[C@@H](n4ccc(=O)[nH]c4=O)[C@H](O)[C@@H]3O)[C@@H](O)[C@H]2O)c(=O)[nH]1 [DS, diquafosol sodium, reference compound] | increased | increased | 
2 | 4.71% | CC(C)C[C@H](NC(=O)CNC(=O)[C@@H](NC(=O)[C@H](CCC(N)=O)NC(=O)CNC(=O)[C@@H]1C[C@@H](O)CN1)C(C)C)C(=O)N[C@@H](C)C(=O)NCC(=O)N1CCC[C@H]1C(=O)N[C@@H](CCCCN)C(=O)O [YDE-009, HyP-Gly-Gln-Val-Gly-Leu-Ala-Gly-Pro-Lys] (H-[Hyp]GQVGLAGPK-OH) | did not show any significant changes |  | 41.50 ± 7.86%
3 | 4.39% | CCC(C)[C@H](NC(=O)[C@H](CCC(N)=O)NC(=O)CNC(=O)[C@@H]1C[C@@H](O)CN1)C(=O)NCC(=O)N[C@@H](CC(C)C)C(=O)N[C@@H](C)C(=O)NCC(=O)N1CCC[C@H]1C(=O)N[C@@H](CCCCN)C(=O)O (stereo partly drawn) [YDE-010, HyP-Gly-Gln-Ile-Gly-Leu-Ala-Gly-Pro-Lys] (H-[Hyp]GQ[Ile(3ξ)]GLAGPK-OH) | did not show any significant changes |  | 49.29 ± 12.06%
4 | 11.88% | CC(C)C[C@H](NC(=O)[C@H](CC(C)C)NC(=O)[C@H](CC(=O)O)NC(=O)[C@H](CCC(N)=O)NC(=O)CNC(=O)[C@@H]1C[C@@H](O)CN1)C(=O)N[C@@H](C)C(=O)NCC(=O)N1CCC[C@H]1C(=O)N[C@@H](CCCCN)C(=O)O [YDE-017, HyP-Gly-Gln-Asp-Leu-Leu-Ala-Gly-Pro-Lys] (H-[Hyp]GQDLLAGPK-OH) | did not show any significant changes |  | 39.76 ± 7.42%
5 | 13.43% | CC(C)C[C@H](NC(=O)[C@H](Cc1ccccc1)NC(=O)[C@H](CC(=O)O)NC(=O)[C@H](CCC(N)=O)NC(=O)CNC(=O)[C@@H]1C[C@@H](O)CN1)C(=O)N[C@@H](C)C(=O)NCC(=O)N1CCC[C@H]1C(=O)N[C@@H](CCCCN)C(=O)O [YDE-019, HyP-Gly-Gln-Asp-Phe-Leu-Ala-Gly-Pro-Lys] (H-[Hyp]GQDFLAGPK-OH) | did not show any significant changes |  | 40.39 ± 12.57%
6 | 21.54% | CC(C)C[C@H](NC(=O)[C@H](Cc1ccc(O)cc1)NC(=O)[C@H](CC(=O)O)NC(=O)[C@H](CCC(N)=O)NC(=O)CNC(=O)[C@@H]1C[C@@H](O)CN1)C(=O)N[C@@H](C)C(=O)NCC(=O)N1CCC[C@H]1C(=O)N[C@@H](CCCCN)C(=O)O [YDE-020, HyP-Gly-Gln-Asp-Tyr-Leu-Ala-Gly-Pro-Lys] (H-[Hyp]GQDYLAGPK-OH) | did not show any significant changes |  | 47.84 ± 13.47%
